Reference: patent US20160150784A1, “SYNERGISTIC PESTICIDAL COMPOSITIONS AND RELATED METHODS” (Dow AgroSciences LLC, priority 2013, published 2016)
Several values for one entry are separate records, joined by “and”; a condition that tells them apart may be missing. Identical values can stand only once.

What was measured:
[1] = tested on: diamondback moth, Plutella xylostella; test: Cabbage leaf disc bioassay (track sprayer, 400 L/Ha) on second instar diamondback moths, percent control, synergy by Colby's equation; type: in vivo; conditions: single active
Description: (§1) The method described in Colby S. R., “Calculating Synergistic and Antagonistic Responses of Herbicide Combinations,” Weeds, 1967, 15, 20-22 was used to determine an existence of synergic effect between the ryanodine receptor modulator compound and the pesticide (I), (II), or any agriculturally acceptable salt thereof in the formulated pesticidal composition. In this method, the percent insect control of the formulated pesticidal composition as observed in the study was compared to the “expected” percent control (E) as calculated by equation (1) (hereinafter “Colby's equation”) below: […]
(§2) where • X is the percentage of control with the first pesticide at a given rate (p), • Y is the percentage of control with the second pesticide at a given rate (q), and • E is the expected control by the first and second pesticide at a rate of p+q.
Bioassays were performed for different active compounds. Cabbage plants with about two to three new-growth—true leaf stage were treated with different pesticides using a track sprayer application at 400 L/Ha spray volume. Three second instar diamondback moths, Plutella xylostella, were infested onto each leaf disc.
Bioassays were performed for different active compounds. Cabbage plants with about two to three new-growth—true leaf stage were treated with different pesticides using a track sprayer at a rate of 400 L/Ha. Three second instar diamondback moths, Plutella xylostella, were infested onto each leaf disc.

[2] = tested on: brown stink bug, Euschistus heros; test: Diet bioassay on second-instar nymphs of brown stink bug, percent control, synergy by Colby's equation; type: in vivo; conditions: single active, dose rate 0.04 weight %
Description: as §1, §2
The percent control of the pesticidal composition against brown stink bug, Euschistus heros, was determined as the “Observed” action, and compared to those obtained by using about 0.04 weight % of compound II, and using about 0.000156 weight % of cyantraniliprole alone. The “Colby's Expected Action” was calculated using Colby's equation as discussed previously.

Structure (SMILES): CCN(C(=O)CCSCCC(F)(F)F)c1cn(-c2cccnc2)nc1Cl [Compound I, N-(3-chloro-1-(pyridin-3-yl)-1H-pyrazol-4-yl)-N-ethyl-3-((3,3,3-trifluoropropyl)thio)propanamide]
- % Control Three Days After Treatment ([1]; dose rate 0.0025 weight %): 4.35% and 0%

Structure (SMILES): CNC(=O)c1cc(Cl)cc(C)c1NC(=O)c1cc(Br)nn1-c1ncccc1Cl [Chlorantraniliprole, 3-bromo-N-[4-chloro-2-methyl-6-[(methylamino)carbonyl]phenyl]-1-(3-chloro-2-pyridinyl)-1H-pyrazole-5-carboxamide]
- % Control Three Days After Treatment ([1]; dose rate 0.0000347 weight %): 25%
- % Control Three Days After Treatment ([1]; dose rate 0.000104 weight %): 62.5%
- % Control Three Days After Treatment ([1]; dose rate 0.0003125 weight %): 66.67%

Structure (SMILES): CCN(C(=O)CC[S+]([O-])CCC(F)(F)F)c1cn(-c2cccnc2)nc1Cl (stereo not drawn) [Compound II, N-(3-chloro-1-(pyridin-3-yl)-1H-pyrazol-4-yl)-N-ethyl-3-((3,3,3-trifluoropropyl)sulfinyl)propanamide]
- % Control Six Days After Treatment [2]: 0%

Structure (SMILES): Cc1cc(C(F)(C(F)(F)F)C(F)(F)F)ccc1NC(=O)c1cccc(I)c1C(=O)NC(C)(C)CS(C)(=O)=O [Flubendiamide]
- % Control Three Days After Treatment ([1]; dose rate 0.0003125 weight %): 8.70%
